Measured values from article PMC12848038, “O-GlcNAc and phosphorylation modifications on HtL1/FBA10 regulate wheat vernalization for flowering” (Nature Communications, 2025).

Target: T1, HtL1/FBA10 (HtL1-GST) (Triticum aestivum, UniProt A0A1D5VE13)
T1 construct: gene LOC123071650; class I aldolase, homotetramer only predicted (SWISS-MODEL); cytosolic
T1 sequence (A0A1D5VE13 1-358): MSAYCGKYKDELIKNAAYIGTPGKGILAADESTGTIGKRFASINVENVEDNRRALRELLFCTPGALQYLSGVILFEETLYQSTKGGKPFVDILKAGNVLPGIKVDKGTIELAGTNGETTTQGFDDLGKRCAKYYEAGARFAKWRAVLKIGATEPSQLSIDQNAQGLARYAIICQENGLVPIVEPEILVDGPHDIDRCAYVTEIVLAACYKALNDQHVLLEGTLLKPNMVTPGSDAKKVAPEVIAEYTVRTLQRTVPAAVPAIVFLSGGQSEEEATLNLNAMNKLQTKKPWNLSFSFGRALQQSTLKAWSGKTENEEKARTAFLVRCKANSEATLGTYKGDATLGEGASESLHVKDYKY
Test: fructose-1,6-bisphosphate aldolase activity assay kit, microplate reader; enzyme kinetic curve
Assay type: biochemical
Conditions: GST fusion protein; no constant in text; kinetic curve only in figure

## O=P(O)(O)OC[C@H]1OC(O)(COP(=O)(O)O)[C@@H](O)[C@@H]1O (stereo partly shown) [FBP, fructose 1,6-bisphosphate]
  fructose-1,6-bisphosphate aldolase activity assay kit, microplate reader; enzyme: Enzyme kinetic curves and activity assays collectively demonstrated that HtL1 exhibits fructose-bisphosphate aldolase activity
